Data from the NIST ThermoML archive (doi:10.1016/j.fluid.2010.07.026).
“And” between values parts separate entries of the source, which are not always exact repeats. Equal entries are not always repeated. Numbers after ± are expanded uncertainties.

What was measured:
[1] = Capillary rise
[2] = wn = mass fraction of the nth substance listed; conditions: Capillary rise

COC [dimethyl ether]
[1]
Conditions	surface tension liquid-gas [mN/m]
278.16 K	14.7 ± 0.4
283.21 K	13.9 ± 0.4
288.17 K	13.1 ± 0.4
293.15 K	12.6 ± 0.4
298.1 K	11.8 ± 0.4
303.13 K	11 ± 0.4

COC [dimethyl ether] + CCC
[2]
Conditions	surface tension liquid-gas
243.4 K, w1 = 0.4975	16 ± 0.4 mN/m
243.46 K, w1 = 0.6949	17.3 ± 0.4 mN/m and 17.2 ± 0.4 mN/m
243.56 K, w1 = 0.3007	15.2 ± 0.4 mN/m
248.19 K, w1 = 0.4975	15.4 ± 0.4 mN/m
248.27 K, w1 = 0.3007	14.5 ± 0.4 mN/m
248.43 K, w1 = 0.6949	16.7 ± 0.4 mN/m and 16.6 ± 0.4 mN/m
253.08 K, w1 = 0.3007	13.9 ± 0.4 mN/m
253.09 K, w1 = 0.4975	14.7 ± 0.4 mN/m
253.23 K, w1 = 0.6949	15.9 ± 0.4 mN/m and 15.8 ± 0.4 mN/m
258.34 K, w1 = 0.6949	15.2 ± 0.4 mN/m
258.38 K, w1 = 0.4975	13.9 ± 0.4 mN/m and 14 ± 0.4 mN/m
258.42 K, w1 = 0.3007	13.1 ± 0.4 mN/m
263.11 K, w1 = 0.4975	13.4 ± 0.4 mN/m
263.16 K, w1 = 0.6949	14.4 ± 0.4 mN/m
263.33 K, w1 = 0.3007	12.4 ± 0.4 mN/m
268.05 K, w1 = 0.3007	11.8 ± 0.4 mN/m
268.16 K, w1 = 0.4975	12.7 ± 0.4 mN/m
268.16 K, w1 = 0.6949	13.7 ± 0.4 mN/m
273.14 K, w1 = 0.3007	11.1 ± 0.4 mN/m
273.15 K, w1 = 0.6949	12.9 ± 0.4 mN/m
273.16 K, w1 = 0.4975	11.9 ± 0.4 mN/m and 12 ± 0.4 mN/m
278.13 K, w1 = 0.3007	10.5 ± 0.4 mN/m
278.15 K, w1 = 0.4975	11.3 ± 0.4 mN/m
278.16 K, w1 = 0.6949	12.3 ± 0.4 mN/m
283.13 K, w1 = 0.3007	9.8 ± 0.4 mN/m
283.16 K, w1 = 0.4975	10.6 ± 0.4 mN/m
283.16 K, w1 = 0.6949	11.6 ± 0.4 mN/m
288.12 K, w1 = 0.3007	9.1 ± 0.4 mN/m
288.15 K, w1 = 0.4975	10 ± 0.4 mN/m
288.15 K, w1 = 0.6949	11 ± 0.4 mN/m and 11.1 ± 0.4 mN/m
293.11 K, w1 = 0.3007	8.4 ± 0.4 mN/m and 8.5 ± 0.4 mN/m
293.13 K, w1 = 0.4975	9.3 ± 0.4 mN/m
293.17 K, w1 = 0.6949	10.4 ± 0.4 mN/m
298.08 K, w1 = 0.3007	7.8 ± 0.4 mN/m and 7.9 ± 0.4 mN/m
298.09 K, w1 = 0.4975	8.7 ± 0.4 mN/m
298.1 K, w1 = 0.6949	9.6 ± 0.4 mN/m
303.12 K, w1 = 0.4975	8 ± 0.4 mN/m
303.15 K, w1 = 0.3007	7 ± 0.4 mN/m and 7.1 ± 0.4 mN/m
303.17 K, w1 = 0.6949	9.1 ± 0.4 mN/m
308.08 K, w1 = 0.4975	7.4 ± 0.4 mN/m
308.11 K, w1 = 0.3007	6.5 ± 0.4 mN/m
308.11 K, w1 = 0.6949	8.5 ± 0.4 mN/m and 8.4 ± 0.4 mN/m
313.17 K, w1 = 0.3007	5.9 ± 0.4 mN/m
313.17 K, w1 = 0.4975	6.6 ± 0.4 mN/m and 6.7 ± 0.4 mN/m
313.18 K, w1 = 0.6949	7.7 ± 0.4 mN/m
318.13 K, w1 = 0.3007	5.3 ± 0.4 mN/m
318.13 K, w1 = 0.4975	6.1 ± 0.4 mN/m
318.16 K, w1 = 0.6949	7.1 ± 0.4 mN/m
323.17 K, w1 = 0.3007	4.8 ± 0.4 mN/m
323.17 K, w1 = 0.4975	5.5 ± 0.4 mN/m
323.17 K, w1 = 0.6949	6.5 ± 0.4 mN/m and 6.4 ± 0.4 mN/m
328.12 K, w1 = 0.3007	4.2 ± 0.4 mN/m
328.13 K, w1 = 0.4975	4.9 ± 0.4 mN/m and 5 ± 0.4 mN/m
328.14 K, w1 = 0.6949	5.9 ± 0.4 mN/m and 5.8 ± 0.4 mN/m
333.12 K, w1 = 0.3007	3.7 ± 0.4 mN/m
333.13 K, w1 = 0.6949	5.3 ± 0.4 mN/m and 5.2 ± 0.4 mN/m
333.14 K, w1 = 0.4975	4.3 ± 0.4 mN/m

CCC [propane]
[1]
Conditions	surface tension liquid-gas [mN/m]
278.18 K	9.5 ± 0.4
283.18 K	8.9 ± 0.4
288.19 K	8.3 ± 0.4
293.18 K	7.7 ± 0.4
298.1 K	7.1 ± 0.4
303.18 K	6.4 ± 0.4
